Test results taken from ChEMBL document CHEMBL1201862, “PubChem BioAssay data set” (2004).
Structures can show the parent of a compound that is named as a salt. Active and inactive are the calls of the source.

How the values were obtained:
[1] = loss of viability in HepG2 cells – cell-based, CellTiter-Glo, cherry-picked, cytotoxicity control for Shn3 inhibitor project, dose response (AID 624134); assay type: functional
[2] = non-specific 3'UTR reporter inhibition in Clone20-Shn3RL – cell-based, Renilla luciferase, cherry-picked, counter-screen for Shn3 inhibitor project, dose response (AID 624133); assay type: functional
[3] = reduction of Shn3 3'UTR-driven luciferase in osteoblasts – cell-based, Clone20 osteoblasts, firefly luciferase, cherry-picked, dose response (AID 624132); assay type: functional;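 also: firefly luciferase luminescence from reporter carrying the Shn3 3'UTR in osteoblasts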
[4] = biological target: T1, Zinc finger protein mex-5 (Caenorhabditis elegans, UniProt Q9XUB2); test: potency of MEX-5 RNA-binding blockers – biochemical, C. elegans, fluorescence polarization, dose response (AID 1960)
T1 sequence (Q9XUB2 whole entry): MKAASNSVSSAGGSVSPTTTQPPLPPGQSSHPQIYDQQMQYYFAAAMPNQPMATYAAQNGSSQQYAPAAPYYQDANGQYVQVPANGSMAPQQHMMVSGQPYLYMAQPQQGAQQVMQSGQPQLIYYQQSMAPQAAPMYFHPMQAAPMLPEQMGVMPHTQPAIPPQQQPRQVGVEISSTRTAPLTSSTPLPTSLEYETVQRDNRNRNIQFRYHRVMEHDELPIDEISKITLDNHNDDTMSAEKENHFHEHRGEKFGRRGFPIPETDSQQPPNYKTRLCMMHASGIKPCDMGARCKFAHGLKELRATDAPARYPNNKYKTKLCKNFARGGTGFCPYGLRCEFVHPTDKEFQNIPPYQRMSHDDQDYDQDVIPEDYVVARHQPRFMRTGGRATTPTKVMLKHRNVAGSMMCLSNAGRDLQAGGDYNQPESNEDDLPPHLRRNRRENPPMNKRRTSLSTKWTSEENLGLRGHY

[5] = biological target: T2, RNA-binding protein pos-1 (Caenorhabditis elegans, UniProt G5EF15); test: disruptors of C. elegans POS-1 RNA interaction – biochemical, fluorescence polarization, dose response (AID 1964);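 also: purified POS-1 fused to maltose binding protein made in E. coli; potency of compounds blocking POS-1 binding to fluorescent RNA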
T2 sequence (G5EF15 whole entry): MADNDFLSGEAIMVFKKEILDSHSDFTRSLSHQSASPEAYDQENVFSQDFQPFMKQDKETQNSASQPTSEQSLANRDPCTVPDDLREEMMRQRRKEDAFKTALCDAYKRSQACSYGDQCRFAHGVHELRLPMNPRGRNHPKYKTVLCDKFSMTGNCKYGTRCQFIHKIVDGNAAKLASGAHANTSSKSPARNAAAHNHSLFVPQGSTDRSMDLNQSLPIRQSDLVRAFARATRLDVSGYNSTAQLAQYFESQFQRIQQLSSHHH

[6] = Luminescence Cell-Based Dose Retest to Confirm Inhibitors of Cancer Stem Cells. [Related pubchem assays (depositor defined):AID2717, AID2721]; assay type: functional, Homo sapiens; conditions: Homo sapiens
Large T antigen = Large T antigen (Simian virus 40, UniProt P03070); assay type: functional, Betapolyomavirus macacae;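 also: Confirmatory-stage PubChem screen for compounds that inhibit SV40 T antigen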
Sequence of Large T antigen (P03070 whole entry): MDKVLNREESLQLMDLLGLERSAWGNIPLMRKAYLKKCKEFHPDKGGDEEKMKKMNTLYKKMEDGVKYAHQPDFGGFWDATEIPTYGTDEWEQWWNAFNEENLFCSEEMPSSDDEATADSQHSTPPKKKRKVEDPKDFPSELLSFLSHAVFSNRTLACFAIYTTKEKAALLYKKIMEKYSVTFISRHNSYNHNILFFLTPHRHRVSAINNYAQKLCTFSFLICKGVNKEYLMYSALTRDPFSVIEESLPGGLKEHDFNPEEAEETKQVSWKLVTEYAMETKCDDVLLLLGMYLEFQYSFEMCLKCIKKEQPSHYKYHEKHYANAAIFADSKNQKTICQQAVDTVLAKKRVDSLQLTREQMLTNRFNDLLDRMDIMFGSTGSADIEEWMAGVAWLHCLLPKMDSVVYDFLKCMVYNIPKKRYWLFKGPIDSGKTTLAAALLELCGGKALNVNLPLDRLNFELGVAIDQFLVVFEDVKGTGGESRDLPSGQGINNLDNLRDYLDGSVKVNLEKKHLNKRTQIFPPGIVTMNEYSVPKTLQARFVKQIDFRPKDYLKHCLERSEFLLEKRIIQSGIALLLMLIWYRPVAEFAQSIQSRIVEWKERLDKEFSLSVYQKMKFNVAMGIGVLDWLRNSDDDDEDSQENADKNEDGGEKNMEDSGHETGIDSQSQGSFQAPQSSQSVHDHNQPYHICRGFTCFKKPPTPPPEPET

Protein skinhead-1 = biological target: T3, Protein skinhead-1 (Caenorhabditis elegans, UniProt P34707); assay type: functional
T3 sequence (P34707 whole entry): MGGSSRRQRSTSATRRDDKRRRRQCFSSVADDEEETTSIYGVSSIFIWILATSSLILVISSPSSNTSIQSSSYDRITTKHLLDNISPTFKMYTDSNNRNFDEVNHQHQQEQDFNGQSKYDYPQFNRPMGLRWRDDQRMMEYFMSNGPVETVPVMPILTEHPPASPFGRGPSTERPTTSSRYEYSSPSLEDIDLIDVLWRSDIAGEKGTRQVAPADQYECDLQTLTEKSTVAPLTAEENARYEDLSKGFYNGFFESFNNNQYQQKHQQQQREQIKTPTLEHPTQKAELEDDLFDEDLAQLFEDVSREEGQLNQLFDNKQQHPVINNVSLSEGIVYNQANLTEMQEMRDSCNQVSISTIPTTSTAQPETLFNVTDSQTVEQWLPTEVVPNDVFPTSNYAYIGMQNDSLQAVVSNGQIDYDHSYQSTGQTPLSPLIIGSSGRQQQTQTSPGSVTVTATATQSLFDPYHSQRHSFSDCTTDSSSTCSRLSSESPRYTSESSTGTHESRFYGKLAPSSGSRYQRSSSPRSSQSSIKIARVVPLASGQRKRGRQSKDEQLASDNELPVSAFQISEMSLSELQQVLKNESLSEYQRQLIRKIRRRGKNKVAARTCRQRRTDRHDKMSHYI

Protein RecA = biological target: T4, Protein RecA (Mycobacterium tuberculosis, UniProt P9WHJ3); test: Fluorescence Cell-Free Homogeneous Dose Retest to Identify Inhibitors of RecA-Intein Splicing Activity. [Related pubchem assays (depositor defined):AID2097, AID2223, AID489010, AID492950]; assay type: functional
T4 sequence (P9WHJ3 whole entry): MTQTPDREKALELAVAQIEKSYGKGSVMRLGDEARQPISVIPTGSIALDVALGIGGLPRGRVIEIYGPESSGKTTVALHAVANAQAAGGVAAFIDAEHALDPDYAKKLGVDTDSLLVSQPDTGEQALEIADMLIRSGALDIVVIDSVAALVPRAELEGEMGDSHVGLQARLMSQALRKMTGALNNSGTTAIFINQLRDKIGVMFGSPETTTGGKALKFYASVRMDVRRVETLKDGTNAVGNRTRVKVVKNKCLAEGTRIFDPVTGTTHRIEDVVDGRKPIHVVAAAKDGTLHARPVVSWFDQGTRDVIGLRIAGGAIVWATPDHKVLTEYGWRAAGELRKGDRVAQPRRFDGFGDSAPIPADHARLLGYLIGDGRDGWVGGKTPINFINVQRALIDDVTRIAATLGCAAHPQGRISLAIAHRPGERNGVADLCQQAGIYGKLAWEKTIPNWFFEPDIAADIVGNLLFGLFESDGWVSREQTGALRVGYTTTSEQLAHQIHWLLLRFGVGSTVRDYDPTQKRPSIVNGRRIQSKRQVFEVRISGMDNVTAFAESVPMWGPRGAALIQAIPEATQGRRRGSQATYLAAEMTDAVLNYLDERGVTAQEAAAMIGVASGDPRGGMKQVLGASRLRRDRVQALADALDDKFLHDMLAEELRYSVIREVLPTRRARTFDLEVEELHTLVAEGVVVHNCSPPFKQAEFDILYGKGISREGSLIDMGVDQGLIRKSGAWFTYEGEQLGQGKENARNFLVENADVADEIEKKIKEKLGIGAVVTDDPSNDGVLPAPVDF

[7] = biological target: T5, Replicative DNA helicase DnaB (Mycobacterium tuberculosis, UniProt P9WMR3); test: DnaB intein splicing inhibitors, dose response, biochemical, cell-free fluorescence (AID 449749); assay type: functional
T5 sequence (P9WMR3 whole entry): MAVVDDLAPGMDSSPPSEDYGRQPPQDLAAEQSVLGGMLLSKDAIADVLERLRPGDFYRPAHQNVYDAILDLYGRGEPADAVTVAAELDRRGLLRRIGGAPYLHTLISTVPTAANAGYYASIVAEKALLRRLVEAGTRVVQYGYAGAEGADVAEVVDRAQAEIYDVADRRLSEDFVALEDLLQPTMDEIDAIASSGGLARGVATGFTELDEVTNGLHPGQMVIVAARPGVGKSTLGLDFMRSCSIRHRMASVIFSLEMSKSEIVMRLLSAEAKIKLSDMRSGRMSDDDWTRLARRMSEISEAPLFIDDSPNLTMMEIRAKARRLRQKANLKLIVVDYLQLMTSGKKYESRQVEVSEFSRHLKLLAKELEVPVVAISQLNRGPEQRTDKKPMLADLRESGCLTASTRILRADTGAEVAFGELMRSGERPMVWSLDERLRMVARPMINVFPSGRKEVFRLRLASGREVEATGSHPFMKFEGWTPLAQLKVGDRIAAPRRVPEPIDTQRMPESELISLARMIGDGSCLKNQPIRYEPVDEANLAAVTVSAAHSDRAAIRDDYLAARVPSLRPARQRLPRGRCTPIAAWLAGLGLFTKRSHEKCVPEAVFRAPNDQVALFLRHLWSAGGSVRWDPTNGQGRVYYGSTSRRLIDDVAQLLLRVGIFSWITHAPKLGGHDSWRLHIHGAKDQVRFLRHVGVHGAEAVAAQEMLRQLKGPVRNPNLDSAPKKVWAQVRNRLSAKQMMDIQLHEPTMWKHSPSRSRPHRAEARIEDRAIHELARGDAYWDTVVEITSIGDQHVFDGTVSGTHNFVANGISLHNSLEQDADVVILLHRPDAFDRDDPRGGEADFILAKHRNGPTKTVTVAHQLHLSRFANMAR

cells [8] = assay type: functional, cell-based
cells [9] = assay type: functional, cell-based; remark: listed apart in the source
INS1 = test: INS-1E survival protection against cytokine death – cell-based, luminescence, retest, dose response (AID 449756); assay type: functional; conditions: Rattus norvegicus;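 also: cell death triggered by IL-1 beta plus TNF-alpha plus IFN-gamma mixture; protective hits raise ATP signal compared with cytokine alone wells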
P388/ADR = test: cells; assay type: functional; conditions: Mus musculus
[10] = biological target: FAD-linked sulfhydryl oxidase ALR (Homo sapiens, UniProt P55789); test: ALR-catalysed DTT oxidation blockers – biochemical, H2O2 detection, luminescence, cherry-pick, dose response (AID 493248)
Sequence of FAD-linked sulfhydryl oxidase ALR (P55789 whole entry): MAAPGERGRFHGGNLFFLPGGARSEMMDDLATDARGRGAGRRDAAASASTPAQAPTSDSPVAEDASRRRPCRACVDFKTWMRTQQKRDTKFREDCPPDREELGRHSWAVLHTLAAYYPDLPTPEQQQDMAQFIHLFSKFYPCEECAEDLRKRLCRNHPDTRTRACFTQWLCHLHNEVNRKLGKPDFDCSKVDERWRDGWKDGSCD

[11] = viability of uninfected HEp-2 cells – cell-based, HTS, cytotoxicity control for RSV inhibitor project, dose response (AID 2410); assay type: functional; conditions: human respiratory syncytial virus

## O=c1c2ccccc2nc2n1C(CSCc1ccc(Cl)cc1Cl)CS2 (centres undefined)
[1]
  AC50: 46.2 µM (active)
[2]
  AC50: 3.48 µM (active)
[3]
  AC50: 1.45 µM (active)

## Clc1cccc(CSc2nc3cc[nH]cc-3n2)c1
[4]
  EC50: > 300 µM (not active)
[5]
  EC50: > 300 µM (not active)

## O=C1CSC(=S)N1N1C(=O)c2cccc([N+](=O)[O-])c2C1=O
[4]
  EC50: 24.8 µM (active)
[5]
  EC50: 24.9 µM (active)

## Cc1n[nH]c(S/C(=C/c2ccc(-c3cccc(Cl)c3)o2)C(=O)O)n1
[4]
  EC50: 69.5 µM (active)
[5]
  EC50: > 300 µM (not active)

## CC(=O)c1ccc(N2CCN(c3ccc(S(=O)(=O)NCCCN(C)C)cc3[N+](=O)[O-])CC2)cc1
[1]
  AC50: 27.3 µM (active)
[6]
  AC50: 1.41 µM (active)
[2]
  AC50: 36.7 µM (active)
[3]
  AC50: 3.78 µM (active)

## CC(C)(C)OC(=O)NCCCCC1=CC2=CC(=O)C(C)(OC(=O)c3ccco3)C(=O)C2=CO1 (centres undefined)
[4]
  EC50: 30.3 µM (active)
[5]
  EC50: 35.5 µM (active)

## Cc1cc(O)cc2c1C(=O)/C(=C/c1ccco1)O2
[4]
  EC50: > 300 µM (not active)
[5]
  EC50: 15.8 µM (active)

## COc1cc(/C=C/C(=O)OCC(=O)N2CC(=O)Nc3ccccc32)ccc1O
Large T antigen
  IC50: 12.6 µM (active)

## N=c1c(C(=O)NC2CCCCC2)cc2c(=O)n3ccccc3nc2n1CCc1ccccc1
[4]
  EC50: 16.1 µM (active)
[5]
  EC50: 15.2 µM (active)

## CCOC(=O)Nc1nc(-c2ccc(Cl)cc2Cl)cs1
Protein skinhead-1
  IC50: 21.4 µM (active)

## Nc1cnc(Nc2ccc(Br)cc2)nc1N
Large T antigen
  IC50: 22.3 µM (active)

## CCOc1ccc(CN(C)c2ccc(S(=O)(=O)N3CCN(C)CC3)cc2[N+](=O)[O-])cc1OC
[1]
  AC50: 43 µM (active)
[2]
  AC50: 5.91 µM (active)
[3]
  AC50: 3.38 µM (active)

## O=S(=O)(c1cccc2c(S(=O)(=O)N3CCCC3)cccc12)N1CCCC1
Protein skinhead-1
  IC50: > 100 µM (inactive)

## O=C1c2ccccc2NC2(CCCCC2)N1c1ccc(O)cc1
Large T antigen
  IC50: 12.5 µM (active)

## COc1ccccc1Nc1nc2nonc2nc1N1CCCCC1C (centres undefined)
[4]
  EC50: > 300 µM (not active)
[5]
  EC50: 95.5 µM (active)

## CNc1c(N)n(Cc2ccccc2)c(=O)[nH]c1=O
[4]
  EC50: 92.1 µM (inconclusive)
[5]
  EC50: > 300 µM (not active)

## C=CSc1sc(Cl)c(N2CCOCC2)c1[N+](=O)[O-]
Protein RecA
  EC50: 54.6 µM (active)
[7]
  AC50: 11.1 µM (active)

## Cc1ccc2[nH]c3c(c2c1)CN(C(=O)CN1CCN(C(=O)c2ccco2)CC1)CC3
[4]
  EC50: 68 µM (active)
[5]
  EC50: 112 µM (active)

## O=C(O)[C@H]1CCCC[C@H]1C(=O)Nc1ccc(Nc2ccccc2)cc1
Large T antigen
  IC50: 9.46 µM (active)

## COc1ccc2oc(C(F)(F)C(F)F)cc(=O)c2c1
Protein skinhead-1
  IC50: > 100 µM (inactive)

## Cc1onc(-c2ccccc2)c1-c1nc2cc(Cl)ccc2c(=O)o1
Protein RecA
  EC50: 158 µM (active)
[7]
  AC50: 1.53 µM (active)

## NC(=Nc1ccc(N)cc1)C(N)=Nc1ccc(N)cc1
[4]
  EC50: 42.8 µM (active)
[5]
  EC50: > 300 µM (not active)

## ClCCN(CCCl)c1ccc(C=Cc2ccncn2)cc1
Protein skinhead-1
  IC50: > 100 µM (inactive)

## N#Cc1ccc(-c2nc3c4ccccc4ccn3c2Cc2ccccc2C(F)(F)F)cc1
Protein skinhead-1
  IC50: > 100 µM (inactive)

## C=CCc1cccc(/C=N/NC(=O)c2ccc3[nH]cnc3c2)c1O
Cells [8]
  EC50: 44.5 µM (active)
[6]
  AC50: 3.81 µM (active)
Cells [9]
  EC50: 11.8 µM (active)
INS1
  AC50: 1.61 µM (active)

## Cc1cc2c(c3oc(C4(C)OC4C4OC4C)cc(=O)c13)C(=O)c1c(O)c(C3CC(C)(N(C)C)C(O)C(C)O3)cc(C3CC(N(C)C)C(O)C(C)O3)c1C2=O (centres undefined)
P388/ADR
  GI50: 2.5 nM (active)

## O=C(CSc1cccc2cccnc12)N/N=C/c1ccc(O)cc1
Large T antigen
  IC50: 11.6 µM (active)

## CCc1ccc(NC(=O)C(=O)N/N=C(\C)CC(=O)Nc2ccccn2)cc1
Protein RecA
  EC50: > 380 µM (inactive)
[7]
  AC50: > 380 µM (inactive)

## COc1ccc(/C=N/NC(=O)c2ccoc2C)cc1O
Cells [8]
  EC50: 6.49 µM (active)
[10]
  AC50: 1.2 µM (active)
Cells [9]
  EC50: > 350 µM (not active)
Large T antigen
  IC50: 9.6 µM (active)
[11]
  CC50: 18.5 µM (active)

## O=Cc1coc2c(ccc3ccccc32)c1=O
Large T antigen
  IC50: 9.01 µM (active)

## CC(C)NC(=N)NC(=N)Nc1ccc(Cl)cc1 [PROGUANIL HYDROCHLORIDE]
[2]
  AC50: 0.403 µM (active)
[3]
  AC50: 0.37 µM (active)
